{"source": "patent US12729377B2", "about": "“RNAi agents and compositions for inhibiting expression of angiopoietin-like 3 (ANGPTL3), and methods of use” (Arrowhead Pharmaceuticals, Inc., priority 2017, dated 2026)", "key": {"ANGPTL3 protein": {"tested_on": "ANGPTL3 protein", "assay": "Example 13: serum ANGPTL3 protein in HFCS diet-fed Rhesus monkeys", "type": "in vivo", "details": "for Avg ANGPTL3 Protein Normalized to Pre-Treatment (Fasted): 4.0 mg/kg sc on day 1 and day 29", "experimental": "ANGPTL3 RNAi agent AD05488 was further evaluated in high-fructose corn syrup (HFCS) diet-fed Rhesus monkeys. Rhesus monkeys were placed on an HFCS diet 37 days prior to dosing. These animals were known to develop increased plasma triglycerides greater than 180 mg/dL on the HFCS diet. On day 1 and again on day 29, four (4) Rhesus monkeys were administered a subcutaneous injection containing 4.0 mg/kg of ANGPTL3 RNAi agent AD05488 formulated in saline (n=4). Two additional Rhesus monkeys were administered normal saline control.\nFasted blood samples were drawn for analysis, and serum samples were analyzed on days-8 (predose), 8, 15, 21, 29, and 36. ANGPTL3 expression levels, triglycerides, total cholesterol, high-density lipoprotein (HDL), and low-density lipoprotein (LDL) in serum were measured on a Cobas® Integra 400 (Roche Diagnostics), according to the manufacturer's recommendations.\nThe ANGPTL3 protein levels, triglyceride levels, total cholesterol levels, HDL levels, and LDL levels for each animal were normalized. For normalization, the level of ANGPTL3 protein, triglyceride, HDL, and total cholesterol, respectively, for each animal at a time point, was divided by the pre-treatment level of expression in that animal (in this case at day −8) to determine the ratio of expression “normalized to pre-treatment.”"}, "ANGPTL3 gene": {"tested_on": "ANGPTL3 gene", "assay": "Example 14: RNAi agent and statin, serum triglycerides in LDLR knockout mice", "type": "in vivo, LDLR KO mice", "from_the_text": "To evaluate the effect of co-administration of RNAi agents and statins in a disease model, LDLR KO mice were commercially obtained (The Jackson Laboratory). For three weeks prior to the onset of the study, forty-one (41) male 7 to 8 week old LDLR KO mice were placed on a high fat (“western”) diet (Teklad Custom Diets TD.88137), and remained on that diet throughout the duration of the study. Pre-dose serum samples were taken on study Day 1 after a four hour fast. The dosing regimen for the study is recited in the following Table 72:\n• Mice were treated at 40 mg/kg for the first 11 days, then switched to 20 mg/kg thereafter.\nThe vehicle used for the oral gavage in the study was a 1:1 mixture of Ora-Plus®: Ora-Sweet® solution, which were acquired commercially. For the preparation of the atorvastatin oral gavage administrations, the respective desired dose of atorvastatin was first dissolved in sterile water (0.3 mL water per 1 mL of desired formulation) and vortexed until smooth, followed by the addition of a mixture of 1:1 Ora-Plus®: Ora-Sweet® solution (0.7 mL vehicle per 1 mL of desired formulation) and vortexed. On day 1 and for each day thereafter an oral gavage dose was administered for each of the Groups except for Group 2. On Day 23, Groups 1, 2, 3, and 4 received a single subcutaneous administration of 2.5 mg/kg dose ([…] solution) of an ANGPTL3 RNAi agent in D5W (dextrose in 5% water), or vehicle control (D5W) with no RNAi agent.\nThe RNAi agent tested (AD05488) included a modified sequence and an N-acetyl-galactosamine-containing targeting ligand conjugated to the 5′ terminal end of the sense strand. (See Tables 3, 4, and 5 for modified sequences and targeting ligand structures). The injections were performed between the skin and muscle (i.e. subcutaneous injections) into the loose skin over the neck and shoulder area. Serum was collected on days 8, 15, 22 (pre-RNAi agent injection), 29, 36, 43, and 50. LDLR KO mice were fasted for four hours prior to each collection.\nANGPTL3 protein levels in serum were measured by ELISA assay (R&D Systems), according to the manufacturer's recommendations. Among other biomarkers, triglycerides, total cholesterol, and low-density lipoprotein (LDL) in serum were measured on a Cobas® Integra 400 (Roche Diagnostics), according to the manufacturer's recommendations.\nThe ANGPTL3 protein levels, triglyceride levels, total cholesterol levels, HDL levels, and LDL levels for each animal were normalized. For normalization, respective levels of ANGPTL3 protein, TG, total cholesterol, or LDL for each animal at a time point was divided by the pre-treatment level of expression in that animal (in this case pre-dose levels on Day 1) to determine the ratio of expression “normalized to pre-treatment.” Data from the study set forth in this Example are shown in the following Tables 73-76: […]"}}, "note": "In the oligonucleotide strings, read from the 5' end, every base follows the letter of its sugar. An asterisk marks phosphorothioate; unmarked linkages are phosphodiester. Other units and linkages are bracketed, terminal groups are in braces. A string of capitals states the bases alone. {NAG37} = tridentate N-acetyl-galactosamine targeting ligand, structure (NAG37)s; [invAb] = inverted abasic unit; m = 2'-O-methyl; f = 2'-fluoro", "data": [{"substance": "AD05488: RNAi agent duplex: antisense AM07235-AS, sense AM07234-SS (antisense mU*fA*mC*fUmGfAmUfCmAfAmAfUmAfUmGfUmUfGmAfG*mC; sense {NAG37}*[invAb]*mGmCmUmCmAmAmCmAfUfAfUmUmUmGmAmUmCmAmGmUmA*[invAb])", "values": [{"measurement": "Avg ANGPTL3 Protein Normalized to Pre-Treatment (Fasted)", "setting": "ANGPTL3 protein; Day 8", "result": 0.229}, {"measurement": "Avg ANGPTL3 Protein Normalized to Pre-Treatment (Fasted)", "setting": "ANGPTL3 protein; Day 15", "result": 0.154}, {"measurement": "Avg ANGPTL3 Protein Normalized to Pre-Treatment (Fasted)", "setting": "ANGPTL3 protein; Day 21", "result": 0.116}, {"measurement": "Avg ANGPTL3 Protein Normalized to Pre-Treatment (Fasted)", "setting": "ANGPTL3 protein; Day 29", "result": 0.114}, {"measurement": "Avg ANGPTL3 Protein Normalized to Pre-Treatment (Fasted)", "setting": "ANGPTL3 protein; Day 36", "result": 0.064}, {"measurement": "reduction in ANGPTL3 protein compared to pre-treatment", "setting": "ANGPTL3 protein; each of the measured time points, 4.0 mg/kg on days 1 and 29, HFCS diet-fed Rhesus monkeys", "result": "significant reduction"}, {"measurement": "Avg TG normalized to pre-treatment", "setting": "ANGPTL3 gene; Group 2: no gavage, 2.5 mg/kg AD05488 SC on day 23, Day 8 (pre-RNAi agent injection)", "result": 0.988}, {"measurement": "Avg TG normalized to pre-treatment", "setting": "ANGPTL3 gene; Group 2: no gavage, 2.5 mg/kg AD05488 SC on day 23, Day 15 (pre-RNAi agent injection)", "result": 1.247}, {"measurement": "Avg TG normalized to pre-treatment", "setting": "ANGPTL3 gene; Group 2: no gavage, 2.5 mg/kg AD05488 SC on day 23, Day 22 (pre-RNAi agent injection)", "result": 1.524}, {"measurement": "Avg TG normalized to pre-treatment", "setting": "ANGPTL3 gene; Group 2: no gavage, 2.5 mg/kg AD05488 SC on day 23, Day 29", "result": 0.166}, {"measurement": "Avg TG normalized to pre-treatment", "setting": "ANGPTL3 gene; Group 2: no gavage, 2.5 mg/kg AD05488 SC on day 23, Day 36", "result": 0.125}, {"measurement": "Avg TG normalized to pre-treatment", "setting": "ANGPTL3 gene; Group 2: no gavage, 2.5 mg/kg AD05488 SC on day 23, Day 43", "result": 0.139}, {"measurement": "Avg TG normalized to pre-treatment", "setting": "ANGPTL3 gene; Group 2: no gavage, 2.5 mg/kg AD05488 SC on day 23, Day 50", "result": 0.153}, {"measurement": "Avg TG normalized to pre-treatment", "setting": "ANGPTL3 gene; Group 3: 10 mg/kg daily oral gavage atorvastatin, 2.5 mg/kg AD05488 on day 23, Day 8 (pre-RNAi agent injection)", "result": 0.613}, {"measurement": "Avg TG normalized to pre-treatment", "setting": "ANGPTL3 gene; Group 3: 10 mg/kg daily oral gavage atorvastatin, 2.5 mg/kg AD05488 on day 23, Day 15 (pre-RNAi agent injection)", "result": 0.436}, {"measurement": "Avg TG normalized to pre-treatment", "setting": "ANGPTL3 gene; Group 3: 10 mg/kg daily oral gavage atorvastatin, 2.5 mg/kg AD05488 on day 23, Day 22 (pre-RNAi agent injection)", "result": 0.614}, {"measurement": "Avg TG normalized to pre-treatment", "setting": "ANGPTL3 gene; Group 3: 10 mg/kg daily oral gavage atorvastatin, 2.5 mg/kg AD05488 on day 23, Day 29", "result": 0.072}, {"measurement": "Avg TG normalized to pre-treatment", "setting": "ANGPTL3 gene; Group 3: 10 mg/kg daily oral gavage atorvastatin, 2.5 mg/kg AD05488 on day 23, Day 36", "result": 0.058}, {"measurement": "Avg TG normalized to pre-treatment", "setting": "ANGPTL3 gene; Group 3: 10 mg/kg daily oral gavage atorvastatin, 2.5 mg/kg AD05488 on day 23, Day 43", "result": 0.076}, {"measurement": "Avg TG normalized to pre-treatment", "setting": "ANGPTL3 gene; Group 3: 10 mg/kg daily oral gavage atorvastatin, 2.5 mg/kg AD05488 on day 23, Day 50", "result": 0.065}, {"measurement": "Avg TG normalized to pre-treatment", "setting": "ANGPTL3 gene; Group 4: 20 mg/kg* daily oral gavage atorvastatin (40 mg/kg first 11 days), 2.5 mg/kg AD05488 on day 23, Day 8 (pre-RNAi agent injection)", "result": 0.567}, {"measurement": "Avg TG normalized to pre-treatment", "setting": "ANGPTL3 gene; Group 4: 20 mg/kg* daily oral gavage atorvastatin (40 mg/kg first 11 days), 2.5 mg/kg AD05488 on day 23, Day 15 (pre-RNAi agent injection)", "result": 0.526}, {"measurement": "Avg TG normalized to pre-treatment", "setting": "ANGPTL3 gene; Group 4: 20 mg/kg* daily oral gavage atorvastatin (40 mg/kg first 11 days), 2.5 mg/kg AD05488 on day 23, Day 22 (pre-RNAi agent injection)", "result": 0.748}, {"measurement": "Avg TG normalized to pre-treatment", "setting": "ANGPTL3 gene; Group 4: 20 mg/kg* daily oral gavage atorvastatin (40 mg/kg first 11 days), 2.5 mg/kg AD05488 on day 23, Day 29", "result": 0.071}, {"measurement": "Avg TG normalized to pre-treatment", "setting": "ANGPTL3 gene; Group 4: 20 mg/kg* daily oral gavage atorvastatin (40 mg/kg first 11 days), 2.5 mg/kg AD05488 on day 23, Day 36", "result": 0.058}, {"measurement": "Avg TG normalized to pre-treatment", "setting": "ANGPTL3 gene; Group 4: 20 mg/kg* daily oral gavage atorvastatin (40 mg/kg first 11 days), 2.5 mg/kg AD05488 on day 23, Day 43", "result": 0.089}, {"measurement": "Avg TG normalized to pre-treatment", "setting": "ANGPTL3 gene; Group 4: 20 mg/kg* daily oral gavage atorvastatin (40 mg/kg first 11 days), 2.5 mg/kg AD05488 on day 23, Day 50", "result": 0.082}, {"measurement": "effects on lipid parameters", "setting": "ANGPTL3 gene; co-administration of atorvastatin (Groups 3 and 4), LDLR KO mice on high fat diet", "result": "additive effects"}, {"measurement": "total reductions in triglycerides", "setting": "ANGPTL3 gene; co-administration of atorvastatin and RNAi agent (Groups 3 and 4), LDLR KO mice on high fat diet", "result": "~ 95%"}]}]}
